# Test results taken from patent publication US20230109839A1, “THERAPEUTIC AGENT FOR TAUOPATHIES” (SUMITOMO PHARMA CO., LTD., priority 2020, published 2023).
# “Also recorded” adds a separate entry of the source.
# Legend:
# APP-Tg mouse = assay: Evaluation of the cognitive function by novel object recognition test (NORT) in APP-Tg mice (Test 3); assay type: in vivo; set-up: key to Discrimination index: (novel − known search time)/(novel + known search time); details: for improvement of cognitive function (NORT), summary of the above results / improvement of cognitive function (NORT): APP-Tg mice; for improvement of cognitive function (NORT), summary of the above results: alone, with Elacridar or with ABT depending on the compound
# Description: Test 3: Evaluation of the Cognitive Function by Novel Object Recognition Test (Hereinafter, Also Referred to as “NORT”)
# The present test is for evaluating the improvement of cognitive function with the test compounds. When an APP-Tg mouse which is an AD (Alzheimer's disease) model mouse is evaluated by NORT, the memory for a familiar object decreases depending on the time interval between the first trial run (training) and the second trial run (test). For example, if the first trial run is done and 3 hours later the second one is done, there is no difference in the searching times between novel object and known object for the APP-Tg mouse, compared with a healthy mouse. Thus, the APP-Tg mouse suffers from significant amnesia.
# The APP-Tg mouse used herein was prepared by constructing an expression cassette linked to human APP751 isoform to which Swedish (K670N/M671L) and Indiana (V717F) mutation were introduced at downstream of mouse Thy-1 promoter, then injecting the expression cassette into a mouse fertilized egg, and transplanting it to a host mouse. The prepared mouse presents with intracerebral AB accumulation and cognitive dysfunction from early on, and thus the mouse can be used for the evaluation of cognitive function. APP-Tg mouse has been also reported in Non-patent literature 6.
# To the prepared APP-Tg mouse, the test compound was administered, and then the first trial run was done for the mouse 30 minutes after the intraperitoneal administration or after 10 days of mixed diet administration. The second trial run was done 3 hours after the first trial run, and the searching times between novel object and known object in the second trial were evaluated. The discrimination index was calculated from the searching time for novel object and known object in the second trial run, and the improvement of cognitive function of the test compound was confirmed by comparing the discrimination index with the test compound-unadministered group as an index of the cognitive function. The discrimination index was calculated by the following formula.
# Discrimination index={(Searching time for novel object)−(Searching time for known object)}/{(Searching time for novel object)+(Searching time for known object)}
# The present test can be also done with a combination with Elacridar (Tokyo Chemical Industry Co., Ltd.). Elacridar can inhibit P-gp and BCRP which are excretion transporters expressed in the blood-brain barrier and thereby Elacridar has the effect of improving the transferability of the test compound to the brain. Eracridal was orally administered to APP-Tg mice at 100 mg/kg 2 hours before the first trial run, and then the test compound was intraperitoneally administered to the mice 30 minutes before the first trial run according to the above method. And, the improvement of cognitive function was evaluated. The significant difference from the vehicle-administered group was determined using the parametric Dunnett multiple comparison test.
# And, the present test can be also done with a combination with ABT (1-aminobenzotriazole) (Tokyo Chemical Industry Co., Ltd.). ABT has the effect of improving the blood concentration of the test compound by inhibiting CYP and suppressing metabolism. The test compound and ABT (1 mg/g-food) were administered with food to APP-Tg mice for 10 days, and then the improvement of cognitive function was evaluated according to the above method. The significant difference from the vehicle-administered group was determined using the parametric Dunnett multiple comparison test.
# [1] = tested on: phosphorylated tau oligomer; assay: Evaluation of phosphorylated tau oligomers in brain of APP-Tg mice, Western blotting (Test 4); assay type: in vivo, mouse; details: for reducing effect of tau oligomer: with food for 7-10 days, ABT 1 mg/g-food depending on the compound, brain, anti-oligomerized tau antibody TOMA-1
# Description: Test 4: Evaluation of Phosphorylated Tau Oligomers Using APP-Tg Mice
# This test is a test to quantify the oligomer of phosphorylated tau in the brain to evaluate the action of a compound. […] The APP-Tg mice used herein were prepared by the method described in Test 3.
# The test compound administered with food to APP-Tg mice for 7-10 days. At this time, in order to increase the blood concentration of the test compound, ABT was used in combination with a mixed diet of 1 mg/g-food depending on the compound. After the administration, the brain was collected, and the protein is extracted from the collected brain using TBS (Tris Buffered Saline) or sarcosyl, and then SDS-PAGE (sodium dodecyl sulfate-polyacrylamide gel electrophoresis) of the soluble or insoluble fraction was performed. After that, Western blotting was performed using an anti-oligomerized tau antibody (Anti-Tau, oligomeric, clone TOMA-1), and the effect of the test compound was evaluated by quantifying the band amount of the phosphorylated tau oligomer.
# The reducing effect of phosphorylated tau oligomer was calculated by the following formula, and from the calculated values, the results were defined as follows: 0-25%: +, 25-50%: ++, 50-75%: +++, and 75-100%: ++++. The significant difference from the vehicle-administered group was determined using the Student t-test. For the band amount, the value corrected by the β-actin band amount was used.
# Reducing effect of phosphorylated tau oligomer={(band amount of oligomerized tau in vehicle-administered group−band amount of oligomerized tau in test compound-administered group)/band amount of oligomerized tau in vehicle-administered group}×100
SMILES,"improvement of cognitive function (NORT), summary of the above results (APP-Tg mouse)","Discrimination index (APP-Tg mouse; APP-Tg mouse, 30 minutes before first trial run)","Discrimination index (APP-Tg mouse; APP-Tg mouse, dose 3 (mg/g i.p.), 30 minutes before first trial run)","Discrimination index (APP-Tg mouse; APP-Tg mouse, dose 10 (mg/g i.p.), 30 minutes before first trial run)","improvement of cognitive function, significant difference from the vehicle-administered group (APP-Tg mouse; APP-Tg mouse, intraperitoneal doses of 10 and 30 mg/kg, parametric Dunnett multiple comparison test)","improvement of cognitive function (NORT, discrimination index) (APP-Tg mouse; APP-Tg mouse, intraperitoneally 3, 10 and 30 mg/kg 30 minutes before the first trial run)","Reducing effect of phosphorylated tau oligomer ([1]; dose 1.9 mg/g-food, 7-10 days, without ABT)","Reducing effect of phosphorylated tau oligomer ([1]; dose 5.8 mg/g-food, 7-10 days, without ABT)",reducing effect of tau oligomer [1],"improvement of cognitive function (NORT) (APP-Tg mouse; Elacridar orally 100 mg/kg 2 hours before, test compound intraperitoneally 30 minutes before the first trial run, 100 mg/kg)","Discrimination index (APP-Tg mouse; APP-Tg mouse, dose 10 (mg/g i.p.), with Elacridar 100 mg/kg orally 2 hours before first trial run)","Discrimination index (APP-Tg mouse; APP-Tg mouse, with Elacridar 100 mg/kg orally 2 hours before first trial run)","inhibition in vivo at 2.2 mg/g-food ([1]; Mus musculus, po, dose 2.2 mg/g-food, 7-10 days, without ABT, read-out: Reducing effect of phosphorylated tau oligomer) [%]","inhibition in vivo at 6.6 mg/g-food ([1]; Mus musculus, po, dose 6.6 mg/g-food, 7-10 days, without ABT, read-out: Reducing effect of phosphorylated tau oligomer) [%]",improvement of cognitive function (NORT) (APP-Tg mouse; test compound and ABT (1 mg/g-food) administered with food for 10 days),"Discrimination index (APP-Tg mouse; APP-Tg mouse, dose 0.2 mg/g-food for 10 days, with ABT 1 mg/g-food)","Discrimination index (APP-Tg mouse; APP-Tg mouse, dose 2 mg/g-food for 10 days, with ABT 1 mg/g-food)","Reducing effect of phosphorylated tau oligomer ([1]; dose 0.2 mg/g-food, 7-10 days, with ABT 1 mg/g-food)","Reducing effect of phosphorylated tau oligomer ([1]; dose 2 mg/g-food, 7-10 days, with ABT 1 mg/g-food)"
"CC1CCN(c2ccc(=O)n(CC(=O)Nc3ccc(C#N)cc3)n2)CC1 [Example 1, N-(4-Cyanophenyl)-2-[3-(4-methylpiperidin-1-yl)-6-oxopyridazin-1(6H)-yl]acetamide]",some improvement of cognitive function,0.25,0.12,0.22,statistically significant,dose-dependent improvement of cognitive function,+ + +,+ + + +,some reducing effect of tau oligomer; also recorded: strong reducing effect of tau oligomer,–,–,–,–,–,–,–,–,–,–
"CC1CC=C(c2cnc3cnn(CC(=O)Nc4ccn5ncnc5c4)c3n2)CC1 (centres unmarked) [Example 577, 2-[6-(4-methylcyclohex-1-en-1-yl)-1H-pyrazolo[3,4-b]pyrazin-1-yl]-N-([1,2,4]triazolo[1,5-a]pyridin-7-yl)acetamide]",some improvement of cognitive function,–,–,–,–,–,–,–,some reducing effect of tau oligomer; also recorded: strong reducing effect of tau oligomer,some improvement of cognitive function; also recorded: strong improvement of cognitive function,0.13,0.21,0 to 25,50 to 75,–,–,–,–,–
"CN(c1ncc2cnn(CC(=O)Nc3ccn4ncnc4c3)c2n1)C1CCCC1 [Example 795, 2-{6-[cyclopentyl(methyl)amino]-1H-pyrazolo[3,4-d]pyrimidin-1-yl}-N-([1,2,4]triazolo[1,5-a]pyridin-7-yl)acetamide]",some improvement of cognitive function,–,–,–,–,–,–,–,some reducing effect of tau oligomer; also recorded: strong reducing effect of tau oligomer,–,–,–,–,–,some improvement of cognitive function,0.30,0.27,+ (0-25%: +),+++ (50-75%: +++)
